Assay results taken from patent US8859021B2, “Skin appearance through gene manipulation” (Sytheon, priority 2007, dated 2014).
Like-named read-outs stand apart in the source and are kept apart here.

Tested on: EpiDerm tissues
Conditions: retinol 10 μg/ml, Sytenol A 5 μg/ml, 2 days, vs 0.1% DMSO control

Compound: CC1=C(/C=C/C(C)=C/C=C/C(C)=C/CO)C(C)(C)CCC1 [Retinol, retinol]
- Fold Change, ACTN1 Alpha-actinin-1 (Alpha-actinin cytoskeletal isoform) (Table 8): +3.11 fold
- Fold Change, ACTN1 Alpha-actinin-1 (Alpha-actinin cytoskeletal isoform) (Table 9): +3.11 fold
- Fold Change, ACTN4 Alpha-actinin-4(F-actin cross-linking protein) (Table 8): +2.99 fold
- Fold Change, ACTN4 Alpha-actinin-4(F-actin cross-linking protein) (Table 9): +2.99 fold
- Fold Change, AFAP1L2 Actin filament-associated protein 1-like 2: +2.84 fold
- Fold Change, C16orf30 Claudin-like protein 24: −2.23 fold
- Fold Change, CDH1 Epithelia-cadherin precursor (E-cadherin) (Table 7): +9.39 fold
- Fold Change, CDH1 Epithelial-cadherin precursor (E-cadherin) E-Cad/CTF1 (Table 9): +9.39 fold
- Fold Change, CDH3 Cadherin-3-precursor (P-cadherin): +3.99 fold
- Fold Change, CDH19 Cadherin-19-precursor: −4.11 fold
- Fold Change, CDH24 Cadherin-24-precursor: +2.06 fold
- Fold Change, CDK5R1 Tau protein kinase II 23 kDa subunit (Cyclin-dependent kinase 5 activator 1 precursor (CDK5 activator 1)): +2.17 fold
- Fold Change, CLDN4 Claudin-4 (Clostridium perfringens enterotoxin receptor) (CPE-R): +3.63 fold
- Fold Change, CLDN5 Claudin-5 (Transmembrane protein deleted in VCFS): −3.66 fold
- Fold Change, CLDN6 Claudin-6 (Skullin 2): +2.59 fold
- Fold Change, CLDN7 Claudin-7 (CLDN-7): +25.30 fold
- Fold Change, CLDN11 Claudin-11 (Oligodendrocyte-specific protein): −2.86 fold
- Fold Change, CLDN12 Claudin-12: +3.73 fold
- Fold Change, CLDN16 Claudin-16 (Paracellin-1) (PCLN-1): +7.79 fold
- Fold Change, COL1A2 Collagen alpha-2 (I) chain precursor (Alpa-2 type I collagen): +3.31 fold
- Fold Change, COL3A1 Collagen alpha-1 (III) chain precursor: −2.36 fold
- Fold Change, COL4A6 Collagen alpha-6 (IV) chain precursor: +6.41 fold
- Fold Change, COL9A2 Collagen alpha-2 (IX) chain precursor: +5.56 fold
- Fold Change, COL9A3 Collagen alpha-3 (IX) chain precursor: +4.05 fold
- Fold Change, COL17A1 Collagen alpha-1 (XVII) chain precursor: +3.5 fold
- Fold Change, CRABP1 Cellular retinoic acid-binding protein 1: +2.83 fold
- Fold Change, CTHRC1 Collagen triple helix repeat-containing protein 1 precursor: −18.94 fold
- Fold Change, CTNNAL1 Alpha-catenin-related protein (ACRP) (Table 8): −2.60 fold
- Fold Change, CTNNAL1 Alpha-catenin-related protein (ACRP) (Table 9): −2.04 fold
- Fold Change, CYP26B1 Cytochrome P450 26B1 (Retinoic acid-metabolizing cytochrome): +1.87 fold
- Fold Change, Connective tissue growth factor precursor (Hypertrophic chondrocyte-specific protein 24): −4.61 fold
- Fold Change, DHRS9 NADP-dependent retinol dehydrogenase/reductase: +5.48 fold
- Fold Change, DSC1 Desmocollin-1-precursor (DG2/DG3): −7.49 fold
- Fold Change, DSC2 Desmocollin-2-precursor (Desmocollin-3): +3.71 fold
- Fold Change, DSG1 Desmoglein-1-precursor (DG1): −2.30 fold
- Fold Change, DSG2 Desmoglein-2-precursor: +13.03 fold
- Fold Change, DSG3 Desmoglein-3-precursor: +2.35 fold
- Fold Change, DSG4 Desmoglein-4-precursor: No effect
- Fold Change, ECM1 Extracellular matrix protein 1 precursor: No effect
- Fold Change, ECM2 Extracellular matrix protein 2 precursor: +4.98 fold
- Fold Change, ELA3B Elastase-3B precursor (Elastase IIIB): +5.89 fold
- Fold Change, F11R Junctional adhesion molecule 1 (JAM-1): +5.77 fold
- Fold Change, FLNB Actin-binding-like protein: +3.89 fold
- Fold Change, FLRT2 Fibronectin-like-domain-containing leucine-rich transmembrane protein 2: −2.67 fold
- Fold Change, FLRT3 Fibronectin-like-domain-containing leucine-rich transmembrane protein 3: +2.77 fold
- Fold Change, FNDC7 Fibronectin type III domain containing 7: No effect
- Fold Change, Fibroblast growth factor 9 (HBGF-9): −12.36 fold
- Fold Change, Fibroblast growth factor 23 precursor (FGF-23) (Tumor-derived hypophosphatemia-inducing factor): −9.78 fold
- Fold Change, Fibroblast growth factor receptor 2 precursor (FGFR-2): +6.50 fold
- Fold Change, Fibroblast growth factor-binding protein 1 precursor (FGF-BP1): +3.51 fold
- Fold Change, GSN Gelsolin precursor (Actin-depolymerizing factor) (ADF): +3.47 fold
- Fold Change, HAS2 Hyaluronan synthase 2: −3.48 fold
- Fold Change, HAS3 Hyaluronan synthase 3: +10.88 fold
- Fold Change, HS3ST1 Heparan sulfate 3-O-sulfotransferase 1 (Table 6): +8.65 fold
- Fold Change, HS3ST1 Heparan sulfate glucosamine 3-O-sulfotransferase 1 precursor (Heparan sulfate 3-O-sulfotransferase 1) (Table 3): +8.65 fold
- Fold Change, HS6ST1 Heparan sulfate 6-O-sulfotransferase 1: +2.26 fold
- Fold Change, HYAL1 Hyaluronidase-1-precursor: +2.16 fold
- Fold Change, Heparin-binding EGF-like growth factor precursor (HB-EGF): +3.89 fold
- Fold Change, IGSF1 Immunoglobulin superfamily, member 1 isoform 1: +3.11 fold
- Fold Change, IGSF3 Immunoglobulin superfamily, member 3 isoform 2: +5.81 fold
- Fold Change, ITG5 Integrin beta-5 precursor (Table 7): −2.42 fold
- Fold Change, ITGA6 Integrin alpha-6 precursor: No effect
- Fold Change, ITGA7 Integrin alpha-7 precursor: −5.53 fold
- Fold Change, ITGB2 Integrin beta-2-precursor: −3.54 fold
- Fold Change, ITGB4 Integrin beta-4-precursor (Table 3): +3.48 fold
- Fold Change, ITGB4 Integrin beta-4 precursor (Table 7): +3.48 fold
- Fold Change, ITGB5 Integrin beta-5 precursor (Table 3): −2.42 fold
- Fold Change, ITGB6 Integrin beta-6-precursor (Table 3): +7.49 fold
- Fold Change, ITGB6 Integrin beta-6-precursor (Table 7): +7.49 fold
- Fold Change, ITGB8 Integrin beta-8 precursor (Table 3): No effect
- Fold Change, ITGB8 Integrin beta-8 precursor (Table 7): No effect
- Fold Change, ITGBL1 Integrin beta-like 1: −4.38 fold
- Fold Change, Insulin growth factor-like family member 3 precursor (IGBP-3): −7.11 fold
- Fold Change, Insulin growth factor-like family member 4 precursor (IGBP-4): +5.97 fold
- Fold Change, Insulin-like growth factor-binding protein 6 precursor (IGBP-6): +5.89 fold
- Fold Change, JUP Catenin gamma (Junction plakoglobin) (Table 8): +2.43 fold
- Fold Change, JUP Catenin gamma (Table 9): +2.43 fold
- Fold Change, KIF1C Kinesin-like protein KIF1C: +2.47 fold
- Fold Change, KIF2A Kinesin-like protein KIF2A: −3.62 fold
- Fold Change, KIF4A Chromosome-associated kinesin KIF4A: +2.08 fold
- Fold Change, KIF13A Kinsein-like protein KIF13A: −2.27 fold
- Fold Change, KIF13B Kinsein-like protein KIF13B: +2.91 fold
- Fold Change, KIF17 Kinesin-like protein KIF17: +2.18 fold
- Fold Change, KIF26A Kinesin family member 26A: −2.93 fold
- Fold Change, KIFC2 Kinesin-like protein KIFC2: −2.45 fold
- Fold Change, KRT2 Keratin-2; Cytokeratin-2e (CK 2e): −8.37 fold
- Fold Change, KRT5 Keratin-5, Cytokeratin-5 (CK-5): +2.39 fold
- Fold Change, KRT7 Keratin-7; Cytokeratin-7 (CK-7): +8.75 fold
- Fold Change, KRT13 Keratin-13; Cytokeratin-13 (CK-13): +14.17 fold
- Fold Change, KRT15 Keratin-15; Cytokeratin-15 (CK-15): +5.48 fold
- Fold Change, KRT19 Keratin-19; Cytokeratin-19 (CK-19): +11.27 fold
- Fold Change, LAMA3 Laminin subunit alpha-3 precursor (Epiligrin 170 kDa subunit): +4.70 fold
- Fold Change, LAMC2 Laminin subunit gamma-2 precursor (Laminin B2t chain): +2.68 fold
- Fold Change, LRAT Lecithin retinol acyltransferase: +12.3 fold
- Fold Change, LRRC49 Tubulin polyglutamylase complex subunit 4 (PGs4): −2.83 fold
- Fold Change, MC1R, TUBB3 Tubulin beta-3-chain (Tubulin beta-III): +2.99 fold
- Fold Change, MMP9 Matrix metalloprotease-9-precursor: +8.35 fold
- Fold Change, MMP15 Matrix metalloprotease-15 precursor: +3.67 fold
- Fold Change, MMP21 Matrix metalloprotease-21 precursor: No effect
- Fold Change, MMP23A, MMP23B Matrix metalloprotease-23: −5.78 fold
- Fold Change, MMP26 Matrix metalloprotease-26-precursor (MMP-26): +4.31 fold
- Fold Change, MMP28 Matrix metalloprotease-28-precursor: +3.88 fold
- Fold Change, MYH14 Myosin-14: +3.38 fold
- Fold Change, MYL2 Myosin regulatory light chain 2: No effect
- Fold Change, MYO1F Myosin-lf (Myosin-le): +6.29 fold
- Fold Change, MYO6 Myosin-VI: No effect
- Fold Change, Mast/stem cell growth factor receptor precursor (SCFR) (Proto-oncogene tyrosine-protein kinase kit (c-kit)): −3.36 fold
- Fold Change, NDST4 N-heparan sulfate sulfotransferase 4: No effect
- Fold Change, NEIL2 DNA glycosylase/AP lyase Neil2: +12.79 fold
- Fold Change, NF-kappa-B-activating protein: −2.13 fold
- Fold Change, NGRN, TTLL13 Tubulin tyrosine ligase-like family, member 13: +11.61 fold
- Fold Change, NID2 Nidogen-2-precursor: −17.36 fold
- Fold Change, NT5C1B, RDH14 Retinol dehydrogenase 14 (Alcohol dehydrogenase PAN20): −5.33 fold
- Fold Change, Nuclear factor Kappa B p105 unit (NF-kappa-B) (DNA-binding factor KBF 1): −3.62 fold
- Fold Change, PARP2 Poly (ADP-ribose) polymerase 2: +2.08 fold
- Fold Change, PARP9 Poly (ADP-ribose) polymerase 9: +5.92 fold
- Fold Change, PARP12 Poly (ADP-ribose) polymerase 12: +4.69 fold
- Fold Change, PARP15 Poly (ADP-ribose) polymerase 15: +6.37 fold
- Fold Change, PCDH11X Procadherin-11: +3.18 fold
- Fold Change, PCDH18 Procadherin-18-precursor: −2.49 fold
- Fold Change, PCDH19 Procadherin-19-precursor: −3.41 fold
- Fold Change, PCDHB1 Procadherin-beta-1-precursor: No effect
- Fold Change, PCDHB2 Procadherin-beta-2-precursor: No effect
- Fold Change, PCDHB3 Procadherin-beta-3-precursor: −6.57 fold
- Fold Change, PCDHB4 Procadherin-beta-4-precursor: −2.62 fold
- Fold Change, PFN4 Profilin-4 (Profilin IV): +4.77 fold
- Fold Change, PI3 Elastase-specific inhibitor: +2.45 fold
- Fold Change, Protein Kinase B (RAC-alpha serine/threonine-protein kinase) (RAC-PK-alpha): −5.09 fold
- Fold Change, RARB Retinoic acid receptor beta-1: +5.63 fold
- Fold Change, RARG Retinoic acid receptor gama-1: +1.87 fold
- Fold Change, RARRES1 Retinoic acid receptor responder protein 1: +13.25 fold
- Fold Change, RBP1 Cellular Retinol-binding protein-I: +2.6 fold
- Fold Change, RBP2 Cellular Retinol-binding protein-II: No effect
- Fold Change, RBP7 Cellular retinoic acid-binding protein 4: No effect
- Fold Change, RETSAT All-trans-retinol 13,14-reductase precursor: −2.97 fold
- Fold Change, SELE E-selection precursor (Endothelial leukocyte adhesion molecule 1) (ELAM-1): −2.11 fold
- Fold Change, SERPINB1 Leukocyte elastase inhibitor: +3.80 fold
- Fold Change, SIR2-like protein1/NAD-dependent deacetylase sirtuin-1 (hSIRT1): −1.89 fold
- Fold Change, SIR2-like protein2/NAD-dependent deacetylase sirtuin-2: +1.52 fold
- Fold Change, SIR2-like protein7/NAD-dependent deacetylase sirtuin-7: +1.58 fold
- Fold Change, SRRM1 Serine/arginine repetitive matrix protein 1 (SR-related nuclear matrix protein 160 kDa) (SRm160): +3.57 fold
- Fold Change, TBCEL Tubulin-specific chaperone cofactor E-like protein (EL): +2.20 fold
- Fold Change, TTBK1 Tau-tubulin kinase 1: −7.99 fold
- Fold Change, TTLL1 Tubulin polyglutamylase complex subunit 3 (PGs3): +1.92 fold
- Fold Change, TUBB2B Tubulin beta-2B chain: −2.56 fold
- Laminins gene regulation (in words): up-regulate
- Fold Change, ITGA7 Integrin alpha-7 precursor (listed as retinol): significant down-regulatory effect
- Fold Change, ITGB5 Integrin beta-5 precursor (Table 3) (listed as retinol): significant down-regulatory effect
- Fold Change, ITGBL1 Integrin beta-like 1 (listed as retinol): significant down-regulatory effect
- Fold Change, NID2 Nidogen-2-precursor (listed as retinol): significant down-regulation
